Data taken from patent US11566007B2, “Ras inhibitors” (Revolution Medicines, Inc., priority 2019, dated 2023).
Where two headings read alike, the source gives them in different places.

Tests used:
[1] = 18-membered ring
[2] = biological target: NRAS Q61R (Homo sapiens (Human), UniProt P01111+P62937, Q61R); experiment: Ras-Raf (BRAF RBD) disruption / FRET / MOA assay, NRAS Q61R; format: biochemical; details: NRAS Q61R; Ras-Raf disruption/FRET/MOA assay; read-out: IC50* NRAS Q61R FRET data
Method in brief: (§1)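 Compounds (30 μM top final, 10-point 3-fold dilutions) incubated 3 h at 25° C with nucleotide-loaded Ras, cyclophilin A and BRAF RBD. Detection with 10 nM anti-His Eu-W1024 and 50 nM anti-GST allophycocyanin over another 1.5 h. Lowered TR-FRET ratio relative to DMSO wells gives IC50.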

[3] = biological target: KRAS WT (Homo sapiens (Human), UniProt P01116+P62937); experiment: Ras-Raf (BRAF RBD) disruption / FRET / MOA assay, KRAS WT; format: biochemical; details: read-out: IC50* KRAS WT FRET data
KRAS WT, sequence (P01116-2 other isoform, or with tags, fused parts or gaps): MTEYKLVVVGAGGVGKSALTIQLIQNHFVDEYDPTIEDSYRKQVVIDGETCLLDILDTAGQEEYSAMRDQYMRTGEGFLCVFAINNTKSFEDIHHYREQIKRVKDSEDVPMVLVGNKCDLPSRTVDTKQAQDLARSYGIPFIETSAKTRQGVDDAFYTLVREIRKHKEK
KRAS WT, sequence (P62937 whole entry): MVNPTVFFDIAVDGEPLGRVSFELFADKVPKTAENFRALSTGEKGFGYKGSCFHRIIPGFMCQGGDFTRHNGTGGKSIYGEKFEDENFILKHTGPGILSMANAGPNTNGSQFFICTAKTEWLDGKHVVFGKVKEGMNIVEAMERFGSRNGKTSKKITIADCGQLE
Method in brief: (§2)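 A 10-point, 3-fold dilution series topping at 30 μM final was incubated 3 h at 25° C with the Ras/cyclophilin A/BRAF RBD mixture.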

[4] = biological target: KRAS G12S (Homo sapiens (Human), UniProt P01116+P62937, G12S); experiment: Ras-Raf (BRAF RBD) disruption / FRET / MOA assay, KRAS G12S; format: biochemical; details: Ras-Raf disruption/FRET/MOA assay; class symbols; read-out: KRAS G12S FRET data IC50
KRAS G12S, sequence (P01116-2 other isoform, or with tags, fused parts or gaps G12S): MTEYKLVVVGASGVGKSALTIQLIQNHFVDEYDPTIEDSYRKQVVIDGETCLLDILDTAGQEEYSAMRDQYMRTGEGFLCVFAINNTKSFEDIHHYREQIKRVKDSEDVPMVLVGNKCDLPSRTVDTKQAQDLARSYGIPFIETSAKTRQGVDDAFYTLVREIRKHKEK
KRAS G12S, sequence (P62937 whole entry): as the sequence (P62937 whole entry) above
Method in brief: as §2

[5] = system: NCI-H358 (K-Ras G12C); experiment: CellTiter-Glo cell viability assay, NCI-H358; format: cell-based, human; details: Homo sapiens, NCI-H358, 120 h, NCI-H358, 5-day treatment; class symbols; read-out: Additional H358 Cell Viability assay data (K-Ras G12C, IC50)
Method in brief: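 Compounds dispensed directly onto seeded K-Ras mutant cells; plates read on day 5 after ~30 min equilibration to room temperature, by CellTiter-Glo luminescence. Signal normalized as (sample/mean DMSO)×100, then fitted to a four-parameter logistic curve.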

[6] = biological target: NRAS WT (Homo sapiens (Human), UniProt P01111+P62937); experiment: Ras-Raf (BRAF RBD) disruption / FRET / MOA assay, NRAS WT; format: biochemical; details: read-out: IC50* NRAS WT FRET data
NRAS WT, sequence (P01111 whole entry): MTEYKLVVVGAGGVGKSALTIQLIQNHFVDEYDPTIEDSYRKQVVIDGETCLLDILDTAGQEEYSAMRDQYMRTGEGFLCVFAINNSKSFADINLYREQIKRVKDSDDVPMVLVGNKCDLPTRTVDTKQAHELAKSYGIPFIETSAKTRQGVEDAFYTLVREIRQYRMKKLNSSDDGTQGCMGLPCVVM
NRAS WT, sequence (P62937 whole entry): as the sequence (P62937 whole entry) above
Method in brief: as §1

[7] = biological target: K-Ras G13C (Homo sapiens (Human), UniProt P01116+P62937, G13C); experiment: Ras-Raf (BRAF RBD) disruption / FRET / MOA assay, KRAS G13C; format: biochemical; details: KRAS G13C; Ras-Raf disruption/FRET/MOA assay; read-out: IC50* KRAS G13C FRET data
K-Ras G13C, sequence (P01116-2 other isoform, or with tags, fused parts or gaps G13C): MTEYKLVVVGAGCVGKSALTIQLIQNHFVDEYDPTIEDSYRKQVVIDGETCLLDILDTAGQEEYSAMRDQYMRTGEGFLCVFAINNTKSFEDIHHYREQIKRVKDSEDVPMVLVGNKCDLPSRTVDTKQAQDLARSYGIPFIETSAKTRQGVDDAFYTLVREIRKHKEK
K-Ras G13C, sequence (P62937 whole entry): as the sequence (P62937 whole entry) above
Method in brief: as §2

[8] = biological target: KRAS Q61H (Homo sapiens (Human), UniProt P01116+P62937, Q61H); experiment: Ras-Raf (BRAF RBD) disruption / FRET / MOA assay, KRAS Q61H; format: biochemical; details: Ras-Raf disruption/FRET/MOA assay; class symbols; read-out: KRAS Q61H FRET data IC50
KRAS Q61H, sequence (P01116-2 other isoform, or with tags, fused parts or gaps Q61H): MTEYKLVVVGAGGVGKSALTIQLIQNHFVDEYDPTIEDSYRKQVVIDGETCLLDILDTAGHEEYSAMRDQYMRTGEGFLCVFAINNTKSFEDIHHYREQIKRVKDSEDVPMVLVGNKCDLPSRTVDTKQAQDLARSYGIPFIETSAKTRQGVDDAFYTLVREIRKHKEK
KRAS Q61H, sequence (P62937 whole entry): as the sequence (P62937 whole entry) above
Method in brief: as §1

[9] = biological target: KRAS G12V (Homo sapiens (Human), UniProt P01116+P62937, G12V); experiment: Ras-Raf (BRAF RBD) disruption / FRET / MOA assay, KRAS G12V; format: biochemical; details: read-out: IC50* KRAS G12V FRET data
KRAS G12V, sequence (P01116-2 other isoform, or with tags, fused parts or gaps G12V): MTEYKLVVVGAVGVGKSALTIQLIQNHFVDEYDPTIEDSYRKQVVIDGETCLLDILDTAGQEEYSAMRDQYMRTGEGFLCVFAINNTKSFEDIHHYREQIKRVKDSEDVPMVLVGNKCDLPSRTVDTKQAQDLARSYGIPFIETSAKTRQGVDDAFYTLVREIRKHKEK
KRAS G12V, sequence (P62937 whole entry): as the sequence (P62937 whole entry) above
Method in brief: as §2

[10] = biological target: KRAS G12D (Homo sapiens (Human), UniProt P01116+P62937, G12D); experiment: Ras-Raf (BRAF RBD) disruption / FRET / MOA assay, KRAS G12D; format: biochemical; details: Ras-Raf disruption/FRET/MOA assay; class symbols; read-out: KRAS G12D FRET data IC50
KRAS G12D, sequence (P01116-2 other isoform, or with tags, fused parts or gaps G12D): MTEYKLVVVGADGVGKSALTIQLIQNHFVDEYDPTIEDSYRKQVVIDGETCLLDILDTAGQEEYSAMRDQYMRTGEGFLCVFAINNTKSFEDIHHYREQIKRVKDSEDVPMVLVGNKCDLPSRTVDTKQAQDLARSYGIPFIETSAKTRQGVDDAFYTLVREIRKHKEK
KRAS G12D, sequence (P62937 whole entry): as the sequence (P62937 whole entry) above
Method in brief: as §2

[11] = biological target: NRAS Q61K (Homo sapiens (Human), UniProt P01111+P62937, Q61K); experiment: Ras-Raf (BRAF RBD) disruption / FRET / MOA assay, NRAS Q61K; format: biochemical; details: NRAS Q61K; Ras-Raf disruption/FRET/MOA assay; read-out: IC50* NRAS Q61K FRET data
NRAS Q61K, sequence (P01111 whole entry Q61K): as the sequence (P01111 whole entry) above, with Q61K counted along it
NRAS Q61K, sequence (P62937 whole entry): as the sequence (P62937 whole entry) above
Method in brief: as §1

[12] = biological target: NRAS G12C (Homo sapiens (Human), UniProt P01111+P62937, G12C); experiment: Ras-Raf (BRAF RBD) disruption / FRET / MOA assay, NRAS G12C; format: biochemical; details: read-out: IC50* NRAS G12C FRET data
NRAS G12C, sequence (P01111 whole entry G12C): as the sequence (P01111 whole entry) above, with G12C counted along it
NRAS G12C, sequence (P62937 whole entry): as the sequence (P62937 whole entry) above
Method in brief: as §2

[13] = biological target: K-Ras G12C (Homo sapiens (Human), UniProt P01116+P62937, G12C); experiment: Ras-Raf (BRAF RBD) disruption / FRET / MOA assay, KRAS G12C; format: biochemical; details: KRAS G12C; Ras-Raf disruption/FRET/MOA assay; read-out: IC50* KRAS G12C FRET data
K-Ras G12C, sequence (P01116-2 other isoform, or with tags, fused parts or gaps G12C): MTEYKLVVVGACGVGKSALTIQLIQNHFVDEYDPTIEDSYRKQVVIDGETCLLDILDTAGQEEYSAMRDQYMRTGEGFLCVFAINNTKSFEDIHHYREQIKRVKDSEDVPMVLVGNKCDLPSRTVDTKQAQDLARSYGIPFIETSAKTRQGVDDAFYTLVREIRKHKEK
K-Ras G12C, sequence (P62937 whole entry): as the sequence (P62937 whole entry) above
Method in brief: as §2

[14] = biological target: KRAS G13D (Homo sapiens (Human), UniProt P01116+P62937, G13D); experiment: Ras-Raf (BRAF RBD) disruption / FRET / MOA assay, KRAS G13D; format: biochemical; details: read-out: IC50* KRAS G13D FRET data
KRAS G13D, sequence (P01116-2 other isoform, or with tags, fused parts or gaps G13D): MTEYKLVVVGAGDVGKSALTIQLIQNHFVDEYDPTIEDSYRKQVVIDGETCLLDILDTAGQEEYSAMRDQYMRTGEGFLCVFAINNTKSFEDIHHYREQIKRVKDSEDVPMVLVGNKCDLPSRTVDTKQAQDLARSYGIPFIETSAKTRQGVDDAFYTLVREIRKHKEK
KRAS G13D, sequence (P62937 whole entry): as the sequence (P62937 whole entry) above
Method in brief: as §2

NRAS Q61R, sequence (P01111 whole entry Q61R): as the sequence (P01111 whole entry) above, with Q61R counted along it
NRAS Q61R, sequence (P62937 whole entry): as the sequence (P62937 whole entry) above

Compound “tert-butyl ((6^3S,4S)-1^1-ethyl-1^2-(2-(methoxymethyl)phenyl)-10,10-dimethyl-2^5-nitro-5,7-dioxo-6^1,6^2,6^3,6^4,6^5,6^6-hexahydro-1^1H-8-oxa-1(5,3)-indola-6(1,3)-pyridazina-2(1,3)-benzenacycloundecaphane-4-yl)carbamate” has a ring closure, isolated yield ([1]; ester bond, EDCI/HOBt/DIPEA, DCM, 6.4 mM) of 73%.
With “tert-butyl ((6^3S,4S)-1^1-ethyl-1^2-(2-((S)-1-methoxyethyl)pyridin-3-yl)-10,10-dimethyl-5,7-dioxo-6^1,6^2,6^3,6^4,6^5,6^6-hexahydro-1^1H-8-oxa-2(5,2)-oxazola-1(5,3)-indola-6(1,3)-pyridazinacycloundecaphane-4-yl)carbamate” the ring closure, isolated yield ([1]; ester bond, EDCI/HOBt/DIPEA, DCM, 13.7 mM, 0.0 °C) was 56.4%.
With `CCn1c(-c2cccnc2[C@H](C)OC)c2c3cc(ccc31)-c1nc(nn1C)C[C@H](NC(=O)OC(C)(C)C)C(=O)N1CCC[C@H](N1)C(=O)OCC(C)(C)C2` the ring closure, yield of all isomers (from CCn1c(-c2cccnc2[C@H](C)OC)c(CC(C)(C)COC(=O)[C@@H]2CCCN(C(=O)[C@H](Cc3nc(Br)n(C)n3)NC(=O)OC(C)(C)C)N2)c2cc(B3OC(C)(C)C(C)(C)O3)ccc21, cc_pd bond, XPhos Pd G3/XPhos/K3PO4, 1,4-dioxane, 71.7 mM, 75.0 °C, 3.0 h) was 56.8%.
Work on `CCn1c(-c2cccnc2[C@H](C)OC)c2c3cc(ccc31)C1=CCCN(C1)CC(NC(=O)OC(C)(C)C)C(=O)N1CCC[C@H](N1)C(=O)OCC(C)(C)C2` (stereo partly shown) yielded a ring closure, yield of all isomers (from CCn1c(-c2cccnc2[C@H](C)OC)c(CC(C)(C)CO)c2cc(C3=CCCN(CC(NC(=O)OC(C)(C)C)C(=O)N4CCC[C@@H](C(=O)O)N4)C3)ccc21, ester bond, EDCI.HCl/HOBt/DIPEA, DCM, 7.14 mM, 30.0 °C, 16.0 h) of 40%.
`CO[C@@H](C)c1ncccc1-c1c2c3cc(ccc3n1CC(F)(F)F)-c1nc(ns1)C[C@H](NC(=O)OC(C)(C)C)C(=O)N1CCC[C@H](N1)C(=O)OCC(C)(C)C2` gave a ring closure, isolated yield ([1]; from CO[C@@H](C)c1ncccc1-c1c(CC(C)(C)CO)c2cc(-c3nc(C[C@H](NC(=O)OC(C)(C)C)C(=O)N4CCC[C@@H](C(=O)O)N4)ns3)ccc2n1CC(F)(F)F, ester bond, EDCI/HOBt/DIPEA, DCM, 11.1 mM) of 43.5% and a ring closure, yield of all isomers (from CO[C@@H](C)c1ncccc1-c1c(CC(C)(C)CO)c2cc(-c3nc(C[C@H](NC(=O)OC(C)(C)C)C(=O)N4CCC[C@@H](C(=O)O)N4)ns3)ccc2n1CC(F)(F)F, ester bond, EDCI/HOBt/DIPEA, DCM, 11.1 mM, 25.0 °C, 16.0 h) of 43.5%.
For “tert-butyl ((6^3S,4S)-2^5-(difluoromethyl)-1^1-ethyl-1^2-(2-((S)-1-methoxyethyl)pyridin-3-yl)-10,10-dimethyl-5,7-dioxo-6^1,6^2,6^3,6^4,6^5,6^6-hexahydro-1^1H-8-oxa-1(5,3)-indola-6(1,3)-pyridazina-2(1,3)-benzenacycloundecaphane-4-yl)carbamate”, the ring closure, isolated yield ([1]; ester bond, EDCI/HOBt/DIPEA, DCM) was 51%.
Compound `CCn1c(-c2cccnc2[C@H](C)OC)c2c3cc(ccc31)-c1nc(co1)C[C@H](NC(=O)OC(C)(C)C)C(=O)N1CCC[C@H](N1)C(=O)OCC(C)(C)C2` has a ring closure, yield of all isomers (from CCn1c(-c2cccnc2[C@H](C)OC)c(CC(C)(C)COC(=O)[C@@H]2CCCN(C(=O)[C@H](Cc3coc(Br)n3)NC(=O)OC(C)(C)C)N2)c2cc(B3OC(C)(C)C(C)(C)O3)ccc21, cc_pd bond, XPhos Pd G3/XPhos/K3PO4, dioxane, […], 70.0 °C, 4.0 h) of 56%.
Compound `CCn1c(-c2cccnc2[C@H](C)OC)c2c3nc(ccc31)-c1csc(n1)C[C@H](NC(=O)OC(C)(C)C)C(=O)N1CCC[C@H](N1)C(=O)OCC(C)(C)C2` has a ring closure, isolated yield ([1]; from CCn1c(-c2cccnc2[C@H](C)OC)c(CC(C)(C)CO)c2nc(-c3csc(C[C@H](NC(=O)OC(C)(C)C)C(=O)N4CCC[C@@H](C(=O)O)N4)n3)ccc21, ester bond, EDCI.HCl/HOBt/DIPEA, DCM, 6.4 mM) of 43% and a ring closure, yield of all isomers (from CCn1c(-c2cccnc2[C@H](C)OC)c(CC(C)(C)CO)c2nc(-c3csc(C[C@H](NC(=O)OC(C)(C)C)C(=O)N4CCC[C@@H](C(=O)O)N4)n3)ccc21, ester bond, EDCI/HOBt/DIPEA, DCM, 6.4 mM, 25.0 °C, 16.0 h) of 43%.
`CCn1c(-c2cccnc2[C@H](C)OC)c2c3cc(ccc31)N1CCO[C@@H](C[C@H](NC(=O)OCc3ccccc3)C(=O)N3CCC[C@H](N3)C(=O)OCC(C)(C)C2)C1` gave a ring closure, isolated yield ([1]; from CCn1c(-c2cccnc2[C@H](C)OC)c(CC(C)(C)CO)c2cc(N3CCO[C@@H](C[C@H](NC(=O)OCc4ccccc4)C(=O)N4CCC[C@@H](C(=O)O)N4)C3)ccc21, ester bond, EDCI/HOBt/DIPEA, DCM, 12.75 mM, 25.0 °C) of 66%.
For `CO[C@@H](C)c1ncccc1-c1c2c3cc(ccc3n1CC(F)(F)F)N1CCO[C@@H](C[C@H](NC(=O)OCc3ccccc3)C(=O)N3CCC[C@H](N3)C(=O)OCC(C)(C)C2)C1`, the ring closure, isolated yield ([1]; from CO[C@@H](C)c1ncccc1-c1c(CC(C)(C)CO)c2cc(N3CCO[C@@H](C[C@H](NC(=O)OCc4ccccc4)C(=O)N4CCC[C@@H](C(=O)O)N4)C3)ccc2n1CC(F)(F)F, ester bond, EDCI/HOBt/DIPEA, DCM, 11.25 mM) was 74%.
“tert-butyl ((6^3S,4S,Z)-1^1-ethyl-1^2-(2-((S)-1-methoxyethyl)pyridin-3-yl)-2^1,10,10-trimethyl-5,7-d ioxo-6^1,6^2,6^3,6^4,6^5,6^6-hexahydro-1^1H,2^1H-8-oxa-1(5,3)-indola-6(1,3)-pyridazina-2(5,3)-triazolacycloundecaphane-4-yl)carbamate” gave a ring closure, isolated yield ([1]; cc_pd bond, XPhos Pd G3/XPhos/K3PO4, dioxane/H2O 5:1, 71.7 mM, 75.0 °C) of 56.8%.
With `C=CC(=O)N1CC[C@H](C(=O)N(C)[C@H](C(=O)N[C@H]2Cc3cc(O)cc(c3)-c3ccc4nc(-c5cccnc5COC)c(n4c3)CC(C)(C)COC(=O)[C@@H]3CCCN(N3)C2=O)C(C)C)C1` [Example A243] the IC50 [2] was greater than 10 µM, the IC50 [3] was greater than 10 µM and the IC50 [4] was greater than 10 µM. It also gave an IC50 [5] greater than 1 µM, an IC50 [6] greater than 10 µM and an IC50 [7] greater than 10 µM. It also gave an IC50 [8] greater than 10 µM, an IC50 [9] greater than 10 µM and an IC50 [10] greater than 10 µM. For the same compound, the IC50 [11] was greater than 10 µM, the IC50 [12] was greater than 10 µM and the IC50 [13] was greater than 10 µM. It also gave an IC50 [14] greater than 10 µM.
With `CO[C@@H](C)c1ncc(N2CCN(C(=O)OCc3ccccc3)CC2)cc1-c1c2c3cc(ccc3n1CC(F)(F)F)-c1cccc(c1)C[C@H](NC(=O)OC(C)(C)C)C(=O)N1CCC[C@H](N1)C(=O)OCC(C)(C)C2` the ring closure, isolated yield ([1]; from CO[C@@H](C)c1ncc(N2CCN(C(=O)OCc3ccccc3)CC2)cc1-c1c(CC(C)(C)CO)c2cc(-c3cccc(C[C@H](NC(=O)OC(C)(C)C)C(=O)N4CCC[C@@H](C(=O)O)N4)c3)ccc2n1CC(F)(F)F, ester bond, EDCI/HOBt/DIPEA, DCM, 9.9 mM) was 67.9%.
In the case of `C=CC(=O)N1CC[C@H](C(=O)N(C)[C@H](C(=O)N[C@H]2Cc3cc(O)cc(c3)-c3ccc4nc(-c5cccnc5[C@H](C)OC)n(c4c3)CC(C)(C)COC(=O)[C@@H]3CCCN(N3)C2=O)C(C)C)C1` [Example A242], the IC50 [2] is reported as greater than 10 µM, the IC50 [3] is reported as greater than 10 µM and the IC50 [4] is reported as greater than 10 µM. For the same compound, the IC50 [5] was greater than 1 µM, the IC50 [6] was greater than 10 µM and the IC50 [7] was 1 to 10 µM. It also gave an IC50 [8] of 1 to 10 µM, an IC50 [9] of 1 to 10 µM and an IC50 [10] greater than 10 µM. It also gave an IC50 [11] greater than 10 µM, an IC50 [12] of 1 to 10 µM and an IC50 [13] of 1 to 10 µM. For the same compound, the IC50 [14] was greater than 10 µM.
